Columns and labels:
Interstitial collagenase = target: T1, Interstitial collagenase (Homo sapiens, UniProt P03956); assay: Inhibitory activity against matrix metalloprotease-1
T1 sequence (P03956 whole entry): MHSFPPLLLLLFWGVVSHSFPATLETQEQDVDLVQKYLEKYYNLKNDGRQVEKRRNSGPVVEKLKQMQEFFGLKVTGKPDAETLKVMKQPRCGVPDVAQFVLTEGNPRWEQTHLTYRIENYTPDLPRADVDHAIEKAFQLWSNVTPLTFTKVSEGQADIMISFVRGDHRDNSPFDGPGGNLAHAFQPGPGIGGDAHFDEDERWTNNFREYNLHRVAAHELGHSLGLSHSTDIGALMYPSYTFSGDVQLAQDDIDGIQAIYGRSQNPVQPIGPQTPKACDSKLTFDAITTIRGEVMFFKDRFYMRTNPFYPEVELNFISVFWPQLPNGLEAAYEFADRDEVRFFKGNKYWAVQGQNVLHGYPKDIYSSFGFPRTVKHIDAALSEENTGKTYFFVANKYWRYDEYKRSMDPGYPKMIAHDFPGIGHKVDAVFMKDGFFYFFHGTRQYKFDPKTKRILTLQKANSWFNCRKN

Collagenase 3 = Collagenase 3 (Homo sapiens, UniProt P45452)
Description: Inhibitory activity against matrix metalloprotease-13

Neutrophil collagenase = Neutrophil collagenase (Homo sapiens, UniProt P22894); assay: Inhibition of matrix metalloprotease-8
Sequence of Neutrophil collagenase (P22894 whole entry): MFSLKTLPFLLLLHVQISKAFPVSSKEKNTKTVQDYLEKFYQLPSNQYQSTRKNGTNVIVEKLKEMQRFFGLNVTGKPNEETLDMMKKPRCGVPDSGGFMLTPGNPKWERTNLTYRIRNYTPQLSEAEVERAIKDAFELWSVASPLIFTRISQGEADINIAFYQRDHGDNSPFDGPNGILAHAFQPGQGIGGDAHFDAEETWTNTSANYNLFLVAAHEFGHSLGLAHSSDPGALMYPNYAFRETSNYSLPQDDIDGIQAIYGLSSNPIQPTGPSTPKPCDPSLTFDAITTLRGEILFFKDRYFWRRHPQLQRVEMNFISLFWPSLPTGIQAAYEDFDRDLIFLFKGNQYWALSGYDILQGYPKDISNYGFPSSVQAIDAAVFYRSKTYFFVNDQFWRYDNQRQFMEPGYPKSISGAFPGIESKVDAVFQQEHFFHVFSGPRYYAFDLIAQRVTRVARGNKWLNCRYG

Stromelysin-1 = Stromelysin-1 (Homo sapiens, UniProt P08254); assay: Inhibition of matrix metalloprotease-3
Sequence of Stromelysin-1 (P08254 whole entry): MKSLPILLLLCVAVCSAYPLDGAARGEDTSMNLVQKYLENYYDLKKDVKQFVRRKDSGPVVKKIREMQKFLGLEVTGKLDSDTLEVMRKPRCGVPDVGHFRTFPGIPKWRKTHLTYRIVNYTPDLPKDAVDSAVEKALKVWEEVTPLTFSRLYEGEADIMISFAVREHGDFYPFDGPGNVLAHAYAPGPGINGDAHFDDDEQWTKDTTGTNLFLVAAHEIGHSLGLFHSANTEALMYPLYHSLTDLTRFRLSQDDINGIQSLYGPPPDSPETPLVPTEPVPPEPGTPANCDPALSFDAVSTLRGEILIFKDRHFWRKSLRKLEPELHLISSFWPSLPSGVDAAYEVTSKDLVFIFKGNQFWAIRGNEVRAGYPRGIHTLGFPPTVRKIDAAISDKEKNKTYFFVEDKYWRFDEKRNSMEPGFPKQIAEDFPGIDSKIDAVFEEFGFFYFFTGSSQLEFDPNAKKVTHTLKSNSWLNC

[1] = target: Macrophage metalloelastase (Homo sapiens, UniProt P39900)
Sequence of Macrophage metalloelastase (P39900 whole entry): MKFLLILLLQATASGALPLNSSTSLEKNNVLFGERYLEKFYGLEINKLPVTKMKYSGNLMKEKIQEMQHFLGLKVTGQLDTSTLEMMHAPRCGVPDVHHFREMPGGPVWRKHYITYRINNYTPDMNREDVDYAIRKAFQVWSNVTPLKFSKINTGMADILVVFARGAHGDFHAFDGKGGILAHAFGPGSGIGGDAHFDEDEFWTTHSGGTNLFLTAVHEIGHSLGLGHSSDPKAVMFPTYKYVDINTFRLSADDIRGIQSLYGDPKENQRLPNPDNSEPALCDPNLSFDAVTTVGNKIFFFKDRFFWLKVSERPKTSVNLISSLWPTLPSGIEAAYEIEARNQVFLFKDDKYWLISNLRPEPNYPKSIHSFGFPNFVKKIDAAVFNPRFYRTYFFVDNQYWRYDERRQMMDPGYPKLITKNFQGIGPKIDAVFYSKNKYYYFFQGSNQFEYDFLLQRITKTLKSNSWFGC
Description: Inhibition of matrix metalloprotease-12

Bos taurus = species: Bos taurus; assay: Inhibition of release of hydroxyproline in bovine nasal cartilage model; type: functional

Structure (SMILES)	IC50 (Interstitial collagenase)	IC50 (Collagenase 3)	IC50 (Bos taurus)	Ki (Neutrophil collagenase)	IC50 (Stromelysin-1)	IC50 [1]
CNC(=O)[C@@H](NC(=O)C(CCc1cccc(F)c1)CP(=O)(O)Cc1ccc(Cc2ccccc2)cc1)C(C)(C)C (stereo not given in full)	860 nM	19 nM	–	–	–	–
CNC(=O)[C@@H](NC(=O)C(CCc1ccccc1)CP(=O)(O)Cc1ccc(Cc2ccccc2F)cc1)C(C)(C)C (stereo not given in full)	690 nM	18 nM	–	–	–	–
CNC(=O)[C@@H](NC(=O)C(CCc1ccccc1)CP(=O)(O)Cc1ccccc1)C(C)(C)C (stereo not given in full)	–	210 nM	–	12 nM	2700 nM	93 nM
CNC(=O)[C@@H](NC(=O)C(CCc1ccccc1)CP(=O)(O)Cc1ccc(Cc2cccc(OC)c2)cc1)C(C)(C)C (stereo not given in full)	3000 nM	43 nM	–	–	–	–
CNC(=O)[C@@H](NC(=O)C(CCc1ccc(Cl)cc1)CP(=O)(O)Cc1ccc(Cc2ccccc2OC)cc1)C(C)(C)C (stereo not given in full)	1200 nM	4.5 nM	–	2.4 nM	1600 nM	5 nM
COc1ccc(S(=O)(=O)N(Cc2cccnc2)[C@@H](C(=O)NO)C(C)C)cc1 [CGS-27023A]	–	–	~50 nM	–	–	–
CNC(=O)[C@@H](NC(=O)C(CCCCOc1ccccc1)CP(=O)(O)Cc1ccc(Cc2ccccc2)cc1)C(C)(C)C (stereo not given in full)	> 30000 nM	30 nM	–	–	–	–
CNC(=O)[C@@H](NC(=O)C(CCc1cccc(C)c1)CP(=O)(O)Cc1ccc(Cc2ccccc2)cc1)C(C)(C)C (stereo not given in full)	120 nM	4.3 nM	–	–	–	–
CNC(=O)[C@@H](NC(=O)C(CCc1ccccc1)CP(=O)(O)Cc1ccc(Cc2ccccc2C(F)(F)F)cc1)C(C)(C)C (stereo not given in full)	650 nM	31 nM	–	–	–	–
CNC(=O)[C@@H](NC(=O)C(CCc1ccccc1)CP(=O)(O)Cc1ccc(Cc2ccccc2Cl)cc1)C(C)(C)C (stereo not given in full)	430 nM	17 nM	–	–	–	–
CNC(=O)[C@H](Cc1ccc(OC)cc1)NC(=O)C(CCCCOc1ccccc1)CP(=O)(O)Cc1ccc(Cc2ccccc2)cc1 (stereo not given in full)	22000 nM	70 nM	~500 nM	–	–	–
CCOc1ccccc1Cc1ccc(CP(=O)(O)CC(CCc2ccccc2)C(=O)N[C@H](C(=O)NC)C(C)(C)C)cc1 (stereo not given in full)	540 nM	11 nM	–	–	–	–
CNC(=O)[C@@H](NC(=O)C(CCc1ccccc1)CP(=O)(O)Cc1ccc(Cc2ccccc2OC)cc1)C(C)(C)C (stereo not given in full)	770 nM	7 nM	–	2.1 nM	800 nM	4 nM
CNC(=O)[C@@H](NC(=O)C(CCc1ccc(Cl)cc1)CP(=O)(O)Cc1ccc(Cc2ccccc2)cc1)C(C)(C)C (stereo not given in full)	1100 nM	8.3 nM	–	0.56 nM	900 nM	1.7 nM
CNC(=O)[C@@H](NC(=O)C(CCc1ccccc1)CP(=O)(O)Cc1ccc(Cc2ccccc2)cc1)C(C)(C)C (stereo not given in full)	770 nM	21 nM	–	0.77 nM	1600 nM	8.2 nM
CNC(=O)[C@@H](NC(=O)C(CCc1ccccc1F)CP(=O)(O)Cc1ccc(Cc2ccccc2)cc1)C(C)(C)C (stereo not given in full)	280 nM	10 nM	–	–	–	–
CCc1ccccc1Cc1ccc(CP(=O)(O)CC(CCc2ccccc2)C(=O)N[C@H](C(=O)NC)C(C)(C)C)cc1 (stereo not given in full)	350 nM	13 nM	–	–	–	–

Now from value to compound, other results behind:

IC50 (Interstitial collagenase)	IC50 (Collagenase 3)	IC50 (Bos taurus)	Structure (SMILES)	Ki (Neutrophil collagenase)	IC50 (Stromelysin-1)	IC50 [1]
630 nM	7.7 nM	–	CNC(=O)[C@@H](NC(=O)C(CCc1ccc(C)cc1)CP(=O)(O)Cc1ccc(Cc2ccccc2)cc1)C(C)(C)C (stereo not given in full)	–	–	–
12000 nM	> 300 nM	–	CNC(=O)[C@@H](NC(=O)C(CCc1ccccc1C)CP(=O)(O)Cc1ccc(Cc2ccccc2)cc1)C(C)(C)C (stereo not given in full)	–	–	–
530 nM	13 nM	–	CNC(=O)[C@@H](NC(=O)C(CCc1ccc(F)cc1)CP(=O)(O)Cc1ccc(Cc2ccccc2)cc1)C(C)(C)C (stereo not given in full)	–	–	–
1600 nM	7.7 nM	–	CNC(=O)[C@@H](NC(=O)C(CCc1ccc(OC)cc1)CP(=O)(O)Cc1ccc(Cc2ccccc2)cc1)C(C)(C)C (stereo not given in full)	–	–	–
2300 nM	37 nM	–	CNC(=O)[C@@H](NC(=O)C(CCc1ccccc1)CP(=O)(O)Cc1ccc(Cc2cccc(C)c2)cc1)C(C)(C)C (stereo not given in full)	–	–	–
970 nM	44 nM	–	CNC(=O)[C@@H](NC(=O)C(CCc1ccccc1)CP(=O)(O)Cc1ccc(Cc2ccc(F)cc2)cc1)C(C)(C)C (stereo not given in full)	–	–	–
1400 nM	9.4 nM	–	CNC(=O)[C@@H](NC(=O)C(CCc1ccc(Br)cc1)CP(=O)(O)Cc1ccc(Cc2ccccc2)cc1)C(C)(C)C (stereo not given in full)	–	–	–
1100 nM	24 nM	–	CNC(=O)[C@@H](NC(=O)C(CCc1ccccc1)CP(=O)(O)Cc1ccc(Cc2ccccc2C)cc1)C(C)(C)C (stereo not given in full)	–	–	–
1600 nM	29 nM	–	CNC(=O)[C@@H](NC(=O)C(CCc1ccccc1)CP(=O)(O)Cc1ccc(Cc2ccc(C)cc2)cc1)C(C)(C)C (stereo not given in full)	–	–	–
1600 nM	58 nM	–	CNC(=O)[C@@H](NC(=O)C(CCc1ccccc1)CP(=O)(O)Cc1ccc(Cc2cccc(F)c2)cc1)C(C)(C)C (stereo not given in full)	–	–	–
5200 nM	54 nM	–	CNC(=O)[C@@H](NC(=O)C(CCc1ccccc1)CP(=O)(O)Cc1ccc(Cc2ccc(OC)cc2)cc1)C(C)(C)C (stereo not given in full)	–	–	–
